According to PubChem BioAssay AID330 (DTP/NCI, 2004):
“And” between values parts separate entries of the source, which are not always exact repeats. Equal values may be shown once. Inconclusive results and toxic doses are left out.

Tested on: P388 leukemia ip, CD2F1 mice, survival T/C
Assay: NCI In Vivo Anticancer Drug Screen. Data for tumor model P388 Leukemia (intraperitoneal) in CD2F1 (CDF1) mice
Settings: endpoint: median survival time, higher = longer survival
Outline: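 Mice carrying the transplanted tumor received test compound or vehicle. Survival was recorded in each group, and the value is the treated-group measurement divided by that of the vehicle-treated control group.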

[1] = dose: 50.0 mg/kg/injection, schedule: Q01DX009 (ip), vehicle: saline with Tween-80
[2] = dose: 100.0 mg/kg/injection, schedule: Q01DX009 (ip), vehicle: saline with Tween-80
[3] = dose: 200.0 mg/kg/injection, schedule: Q01DX009 (ip), vehicle: saline with Tween-80
[4] = dose: 25.0 mg/kg/injection, schedule: Q01DX009 (ip), vehicle: saline with Tween-80
[5] = dose: 60.0 mg/kg/injection, schedule: Q01DX005 (ip), vehicle: saline with Tween-80
[6] = dose: 120.0 mg/kg/injection, schedule: Q01DX005 (ip), vehicle: saline with Tween-80
[7] = dose: 240.0 mg/kg/injection, schedule: Q01DX005 (ip), vehicle: saline with Tween-80
[8] = dose: 12.5 mg/kg/injection, schedule: Q01DX009 (ip), vehicle: distilled water + Tween-80
[9] = dose: 25.0 mg/kg/injection, schedule: Q01DX009 (ip), vehicle: distilled water + Tween-80
[10] = dose: 50.0 mg/kg/injection, schedule: Q01DX009 (ip), vehicle: distilled water + Tween-80
[11] = dose: 100.0 mg/kg/injection, schedule: Q01DX009 (ip), vehicle: distilled water + Tween-80
[12] = dose: 200.0 mg/kg/injection, schedule: Q01DX009 (ip), vehicle: distilled water + Tween-80

Compound: CCCCN=C(N)N/N=C(\C)c1cccc2c1Cc1c(/C(C)=N/NC(N)=NCCCC)cccc1-2
- T/C (dose: 12.5 mg/kg/injection, schedule: Q04DX002 (ip), vehicle: saline with Tween-80): 108 % of control

Compound: O=C(Nc1cccc(Cl)c1)OCCCc1ccncc1
- T/C [1]: 96 % of control
- T/C [2]: 96 % of control

Compound: Cc1c(C)c2c(c(C)c1OP(=O)(N1CC1)N1CC1)CCC(C)(CCCC(C)CCCC(C)CCCC(C)C)O2 (stereo not drawn)
- T/C [1]: 105 % of control
- T/C [2]: 105 % of control
- T/C [3]: 102 % of control

Compound: COc1ccc(N2CCN(/C=C3\Cc4c(F)cccc4C3=O)CC2)cc1
- T/C (dose: 100.0 mg/kg/injection, schedule: Q04DX003 (ip), vehicle: Klucel (hydroxypropylcellulose) (HPC)): 97 % of control
- T/C (dose: 200.0 mg/kg/injection, schedule: Q04DX003 (ip), vehicle: Klucel (hydroxypropylcellulose) (HPC)): 103 % of control
- T/C (dose: 400.0 mg/kg/injection, schedule: Q04DX003 (ip), vehicle: Klucel (hydroxypropylcellulose) (HPC)): 101 % of control

Compound: O=C(O)CCCC(C(=O)O)N1C(=O)c2ccccc2C1=O (stereo not drawn)
- T/C (dose: 50.0 mg/kg/injection, schedule: Q01DX005 (ip), vehicle: saline with Tween-80): 94 % of control
- T/C (dose: 100.0 mg/kg/injection, schedule: Q01DX005 (ip), vehicle: saline with Tween-80): 93 % of control
- T/C (dose: 200.0 mg/kg/injection, schedule: Q01DX005 (ip), vehicle: saline with Tween-80): 87 % of control

Compound: NC(CCSCc1ccc(N(CCCl)CCCl)cc1)C(=O)O (stereo not drawn)
- T/C (dose: 3.13 mg/kg/injection, schedule: Q04DX003 (ip), vehicle: saline with Tween-80): 154 % of control
- T/C (dose: 6.25 mg/kg/injection, schedule: Q01DX009 (ip), vehicle: saline with Tween-80): 118 % of control
- T/C (dose: 6.25 mg/kg/injection, schedule: Q04DX003 (ip), vehicle: saline with Tween-80): 163 % of control
- T/C (dose: 12.5 mg/kg/injection, schedule: Q01DX009 (ip), vehicle: saline with Tween-80): 122 % of control
- T/C (dose: 12.5 mg/kg/injection, schedule: Q04DX003 (ip), vehicle: saline with Tween-80): 190 % of control
- T/C [4]: 163 % of control and 227 % of control
- T/C (dose: 25.0 mg/kg/injection, schedule: Q04DX003 (ip), vehicle: saline with Tween-80): 181 % of control
- T/C [1]: 95 % of control
- T/C (dose: 50.0 mg/kg/injection, schedule: Q04DX003 (ip), vehicle: saline with Tween-80): 263 % of control
- T/C (dose: 100.0 mg/kg/injection, schedule: Q04DX003 (ip), vehicle: saline with Tween-80): 222 % of control and 231 % of control

Compound: Nc1nc(-c2ccc(F)cc2)cc(-c2cc(-c3ccc(F)cc3)nc(N)n2)n1
- T/C (dose: 60.0 mg/kg/injection, schedule: Q01DX005 (ip), vehicle: saline): 100 % of control
- T/C (dose: 120.0 mg/kg/injection, schedule: Q01DX005 (ip), vehicle: saline): 105 % of control
- T/C (dose: 240.0 mg/kg/injection, schedule: Q01DX005 (ip), vehicle: saline): 102 % of control

Compound: CCOCCN(CCOCC)c1ncnc2nc[nH]c12
- T/C (dose: 50.0 mg/kg/injection, schedule: Q01DX005 (ip), vehicle: saline): 102 % of control
- T/C (dose: 100.0 mg/kg/injection, schedule: Q01DX005 (ip), vehicle: saline): 102 % of control
- T/C (dose: 200.0 mg/kg/injection, schedule: Q01DX005 (ip), vehicle: saline): 98 % of control

Compound: COC(=O)c1nc2c(n(C)/c1=N/C(=O)Nc1ccccc1)CCCC2
- T/C [4]: 120 % of control
- T/C [1]: 124 % of control
- T/C [2]: 216 % of control
- T/C [3]: 117 % of control

Compound: CC(=O)N(O)c1ccccc1-c1ccccc1
- T/C [1]: 103 % of control
- T/C [2]: 99 % of control
- T/C [3]: 97 % of control

Compound: C=C(C)c1nc(N)nc(NCc2ccccc2)n1
- T/C (dose: 50.0 mg/kg/injection, schedule: Q01DX005 (ip), vehicle: Klucel (hydroxypropylcellulose) (HPC)): 100 % of control
- T/C (dose: 100.0 mg/kg/injection, schedule: Q01DX005 (ip), vehicle: Klucel (hydroxypropylcellulose) (HPC)): 102 % of control
- T/C (dose: 200.0 mg/kg/injection, schedule: Q01DX005 (ip), vehicle: Klucel (hydroxypropylcellulose) (HPC)): 109 % of control

Compound: C/C1=C\CCC(C)C2CCC(C)(O2)C(O)C(O)c2c(C)coc2C1 (stereo not drawn)
- T/C (dose: 4.0 mg/kg/injection, schedule: Q01DX009 (ip), vehicle: Klucel (hydroxypropylcellulose) (HPC)): 100 % of control
- T/C (dose: 8.0 mg/kg/injection, schedule: Q01DX009 (ip), vehicle: Klucel (hydroxypropylcellulose) (HPC)): 105 % of control
- T/C (dose: 16.0 mg/kg/injection, schedule: Q01DX009 (ip), vehicle: Klucel (hydroxypropylcellulose) (HPC)): 100 % of control
- T/C (dose: 32.0 mg/kg/injection, schedule: Q01DX009 (ip), vehicle: Klucel (hydroxypropylcellulose) (HPC)): 94 % of control

Compound: COc1ccc(C2=C(Cl)C(=O)N(c3ccccc3Cl)C(=O)C2(Cl)Cl)cc1
- T/C (dose: 100.0 mg/kg/injection, schedule: Q04DX002 (ip), vehicle: Klucel (hydroxypropylcellulose) (HPC)): 105 % of control
- T/C (dose: 200.0 mg/kg/injection, schedule: Q04DX002 (ip), vehicle: Klucel (hydroxypropylcellulose) (HPC)): 112 % of control
- T/C (dose: 400.0 mg/kg/injection, schedule: Q04DX002 (ip), vehicle: Klucel (hydroxypropylcellulose) (HPC)): 113 % of control

Compound: COc1ccc(/C=N/N2CN(C(C)C(=O)O)P(N(CCO)CCO)N=C2N)cc1OC (stereo not drawn)
- T/C [5]: 104 % of control
- T/C [6]: 99 % of control
- T/C [7]: 99 % of control

Compound: COc1cc(C2c3cc4c(cc3OC(C)(OC)C2C(C)=O)OCO4)cc(OC)c1O (stereo not drawn)
- T/C [5]: 91 % of control
- T/C [6]: 95 % of control
- T/C [7]: 97 % of control

Compound: CCOC(=O)c1ccc(NN=NCCO)cc1
- T/C [8]: 97 % of control
- T/C [9]: 100 % of control
- T/C [10]: 100 % of control
- T/C [11]: 95 % of control
- T/C [12]: 118 % of control

Compound: Cc1c2ncccc2c(C)c2c1[nH]c1ccccc12
- T/C (dose: 25.0 mg/kg/injection, schedule: Q04DX002 (ip), vehicle: saline with Tween-80): 100 % of control
- T/C (dose: 50.0 mg/kg/injection, schedule: Q04DX002 (ip), vehicle: saline with Tween-80): 91 % of control
- T/C (dose: 100.0 mg/kg/injection, schedule: Q04DX002 (ip), vehicle: saline with Tween-80): 98 % of control
- T/C (dose: 200.0 mg/kg/injection, schedule: Q04DX002 (ip), vehicle: saline with Tween-80): 89 % of control

Compound: C=C(C)C(=O)OCC1CO1 (stereo not drawn)
- T/C (dose: 50.0 mg/kg/injection, schedule: Q01DX009 (ip), vehicle: water): 100 % of control
- T/C (dose: 100.0 mg/kg/injection, schedule: Q01DX009 (ip), vehicle: water): 108 % of control
- T/C (dose: 200.0 mg/kg/injection, schedule: Q01DX009 (ip), vehicle: water): 120 % of control

Compound: C=C(C(=O)OC)C1C=CCC1 (stereo not drawn)
- T/C [8]: 100 % of control
- T/C [9]: 100 % of control
- T/C [10]: 111 % of control
- T/C [11]: 101 % of control
- T/C [12]: 86 % of control

Compound: Nc1n[nH]c(N)n1
- T/C [2]: 109 % of control
- T/C (dose: 800.0 mg/kg/injection, schedule: Q01DX009 (ip), vehicle: saline with Tween-80): 163 % of control

Compound: CC(=O)Oc1cc2c(cc1C(Nc1ccccn1)c1ccc3c(c1)OCO3)OCO2 (stereo not drawn)
- T/C [5]: 98 % of control
- T/C [6]: 92 % of control
- T/C [7]: 97 % of control

Compound: [CH3][Ge]([O][Ge]([CH3])([c]1ccccc1)[c]1ccccc1)([c]1ccccc1)[c]1ccccc1
- T/C (dose: 50.0 mg/kg/injection, schedule: Q01DX009 (ip), vehicle: saline): 102 % of control
- T/C (dose: 100.0 mg/kg/injection, schedule: Q01DX009 (ip), vehicle: saline): 93 % of control
- T/C (dose: 200.0 mg/kg/injection, schedule: Q01DX009 (ip), vehicle: saline): 92 % of control

Compound: O=[N+]([O-])c1ccccc1NN=NCCCl
- T/C (dose: 3.12 mg/kg/injection, schedule: Q01DX005 (ip), vehicle: Klucel (hydroxypropylcellulose) (HPC)): 112 % of control
- T/C (dose: 6.25 mg/kg/injection, schedule: Q01DX005 (ip), vehicle: Klucel (hydroxypropylcellulose) (HPC)): 120 % of control
- T/C (dose: 25.0 mg/kg/injection, schedule: Q01DX005 (ip), vehicle: Klucel (hydroxypropylcellulose) (HPC)): 120 % of control

Compound: C=C1CC(C)(Cl)C(Cl)CC1/C=C/Cl (stereo not drawn)
- T/C (dose: 1.87 mg/kg/injection, schedule: Q01DX009 (ip), vehicle: saline + alcohol): 100 % of control
- T/C (dose: 3.75 mg/kg/injection, schedule: Q01DX009 (ip), vehicle: saline + alcohol): 99 % of control
- T/C (dose: 7.5 mg/kg/injection, schedule: Q01DX009 (ip), vehicle: saline + alcohol): 103 % of control
- T/C (dose: 15.0 mg/kg/injection, schedule: Q01DX009 (ip), vehicle: saline + alcohol): 100 % of control
